Experiment: mn = molality of the nth substance listed, in mol/kg
Conditions: 100 kPa, Liquid, Direct current cell with electrodes

F[B-](F)(F)F.[Na+] [sodium tetrafluoroborate] + CN(C)C=O
Conditions	molar conductivity [S·m2/mol]
303.15 K, m1 = 0.0001663	0.008767
303.15 K, m1 = 0.0003918	0.008654
303.15 K, m1 = 0.0005861	0.0085855
303.15 K, m1 = 0.0007746	0.008529
303.15 K, m1 = 0.001279	0.0084093
303.15 K, m1 = 0.002088	0.0082612
303.15 K, m1 = 0.003044	0.0081277
303.15 K, m1 = 0.004105	0.0080061
303.15 K, m1 = 0.005964	0.0078384
303.15 K, m1 = 0.007948	0.0076906
303.15 K, m1 = 0.01001	0.0075615
303.15 K, m1 = 0.01198	0.0074596
308.15 K, m1 = 0.0001761	0.009295
308.15 K, m1 = 0.0003871	0.009183
308.15 K, m1 = 0.0005655	0.0091142
308.15 K, m1 = 0.0008095	0.0090359
308.15 K, m1 = 0.001266	0.0089201
308.15 K, m1 = 0.002043	0.0087655
308.15 K, m1 = 0.003019	0.0086178
308.15 K, m1 = 0.004064	0.0084888
308.15 K, m1 = 0.005984	0.0083031
308.15 K, m1 = 0.007986	0.0081431
308.15 K, m1 = 0.01001	0.0080069
308.15 K, m1 = 0.01196	0.0079009
313.15 K, m1 = 0.0001113	0.009888
313.15 K, m1 = 0.0003812	0.00972
313.15 K, m1 = 0.0006135	0.0096252
313.15 K, m1 = 0.000783	0.0095672
313.15 K, m1 = 0.001297	0.0094265
313.15 K, m1 = 0.002162	0.0092463
313.15 K, m1 = 0.003051	0.0091053
313.15 K, m1 = 0.004099	0.0089684
313.15 K, m1 = 0.005996	0.0087733
313.15 K, m1 = 0.008013	0.0086011
313.15 K, m1 = 0.01004	0.0084556
313.15 K, m1 = 0.01199	0.0083454
318.15 K, m1 = 0.0001596	0.0104
318.15 K, m1 = 0.0004215	0.01024
318.15 K, m1 = 0.0005697	0.010177
318.15 K, m1 = 0.0008753	0.010067
318.15 K, m1 = 0.001339	0.009935
318.15 K, m1 = 0.002012	0.0097823
318.15 K, m1 = 0.003095	0.009596
318.15 K, m1 = 0.004095	0.0094578
318.15 K, m1 = 0.005994	0.0092497
318.15 K, m1 = 0.008014	0.0090658
318.15 K, m1 = 0.009953	0.0089174
318.15 K, m1 = 0.01195	0.0087989
